{LysNH2} = C-terminal lysine amide
Assays:
5′-r(U)10 [1] = test: Melting temperature (Tm) with 5′-r(U)10; format: binding; settings: for Melting temperature (Tm), 5′-r(U)10 / Melting temperature (Tm), 5′-r(U)10, cooling curve: Table 2, medium salt buffer, pH 7.0; for Melting temperature (Tm), 5′-r(U)10: heating curve, 1 K/min; for Melting temperature (Tm), 5′-r(U)10, cooling curve: value in parentheses = cooling curve
5′-r(U)10 [2] = settings: earlier work (17); cited from earlier work
[3] = system: complementary DNA oligomers; test: Melting temperature (Tm) with complementary DNA oligomer, Table 1; format: binding; settings: medium salt buffer: 100 mM NaCl, 10 mM phosphate, 0.1 mM EDTA, pH 7.0; heating rate 1 K/min; UV 254 nm
Protocol: (§1) Binding affinity. The binding affinity towards complementary RNA and DNA oligomers was measured by obtaining the Tm-curves (Table 1). As expected, incorporation of both the pyrrolidinone and the pyrrolidine analogue into the PNA strand results in destabilization against DNA and RNA compared to unmodified PNA (entry 1 vs. 2 and 3).

[4] = system: complementary RNA oligomers; test: Melting temperature (Tm) with complementary RNA oligomer, Table 1; format: binding; settings: medium salt buffer: 100 mM NaCl, 10 mM phosphate, 0.1 mM EDTA, pH 7.0; heating rate 1 K/min; UV 254 nm
Protocol: as §1

poly dA = test: Thermal denaturation (Tm) with poly dA; format: binding; settings: for Melting temperature (Tm), Poly dA: measured from 10 to 90 °C, medium salt buffer, pH 7.0, 0.5 K/min; for Melting temperature (Tm), Poly dA, measured from 90 to 10 °C: value in parentheses
Source text: (§2) Binding. The binding of PNA 1164 and PNA 2121 to poly dA and poly A was studied by thermal denaturation (Tm, Table 4). Also listed are the values given by Hickman et. al. (29) The thermal stability results presented in Table 4 clearly indicate that a T5-PNA-oligomer having (2R, 4S)-pyrrolidine backbone (PNA 2121) forms stronger complexes with both poly dA and poly A as compared to the (2R, 4R)-pyrrolidine isomer (entry 3) and also compared to the parent aminoethylglycine PNA (PNA 1164, entry 1). These complexes are ascribed to triplexes and further studies on (pyrimidine-purine mixed sequences) pyrrolidine PNAs are required to establish whether the present results can be extended to duplex structures and are generally valid. Such studies are now in progress.

poly A = test: Thermal denaturation (Tm) with poly A; format: binding; settings: for Melting temperature (Tm), Poly A: measured from 10 to 90 °C, medium salt buffer, pH 7.0, 0.5 K/min; for Melting temperature (Tm), Poly A, measured from 90 to 10 °C: value in parentheses
Source text: as §2

[5] = system: DNA target 5′-d(TTT-TXT-TTT-T)-3′, X = C; test: Melting temperature (Tm) with mismatch DNA target, X = C; format: binding; settings: Table 3; for Melting temperature (Tm), X = C: heating curve, medium salt buffer, pH 7.0; for Melting temperature (Tm), X = C, cooling curve: value in parentheses = cooling curve
Source text: (§3) The complex between PNA 2110 and DNA was further evaluated.

5′-d(T)10 = test: Melting temperature (Tm) with 5′-d(T)10; format: binding; settings: for Melting temperature (Tm), 5′-d(T)10 / Melting temperature (Tm), 5′-d(T)10, cooling curve: Table 2; for Melting temperature (Tm), 5′-d(T)10 / Melting temperature (Tm), X = T: heating curve; for Melting temperature (Tm), 5′-d(T)10 / Melting temperature (Tm), 5′-d(T)10, cooling curve / Melting temperature (Tm), X = T: medium salt buffer, pH 7.0; for Melting temperature (Tm), 5′-d(T)10: 1 K/min; for Melting temperature (Tm), 5′-d(T)10, cooling curve / Melting temperature (Tm), X = T, cooling curve: value in parentheses = cooling curve; for Melting temperature (Tm), X = T / Melting temperature (Tm), X = T, cooling curve: Table 3, DNA target 5′-d(TTT-TXT-TTT-T)-3′
[6] = system: DNA target 5′-d(TTT-TXT-TTT-T)-3′, X = G; test: Melting temperature (Tm) with mismatch DNA target, X = G; format: binding; settings: Table 3; for Melting temperature (Tm), X = G: heating curve, medium salt buffer, pH 7.0; for Melting temperature (Tm), X = G, cooling curve: value in parentheses = cooling curve
Source text: as §3

[7] = system: DNA parallel: 5′-dATG AGT ATG AGA-3′; test: Thermal stability (Tm) of complex with parallel DNA; format: binding; settings: medium salt buffer, pH 7.0
Protocol: (§4) The binding properties of pyr-PNA oligomer consisting of 10 monomers of the following sequence: H-CTC ATA CTC T-Lys-NH2 were investigated by measuring the thermal stability of the complexes formed with sequence complementary DNA and RNA, respectively, as compared to the stability for the corresponding aeg-PNA oligomer.
(§5) The stability expressed as the melting temperature (Tm), defined as the temperature at which 50% of the complexes have been dissociated, was determined as described by Arghya Ray et al (32).
(§6) Measured in medium salt buffer: 100 mM NaCl, 10 mM Na-phosphate, 0.1 mM EDTA, pH=7.0.

[8] = system: DNA antiparallel: 5′-dAGA GTA TGA GTA-3′; test: Thermal stability (Tm) of complex with antiparallel DNA; format: binding; settings: pH 7.0; for Tm, DNA antiparallel, down: medium salt buffer
Protocol: as §4, §5, §6

[9] = system: RNA antiparallel: 5′-AGA GUA UGA GUA-3′; test: Thermal stability (Tm) of complex with antiparallel RNA; format: binding; settings: medium salt buffer, pH 7.0
Protocol: as §4, §5, §6

[10] = system: DNA target 5′-d(TTT-TXT-TTT-T)-3′, X = A; test: Melting temperature (Tm) with mismatch DNA target, X = A; format: binding; settings: Table 3
Source text: as §3

[11] = as opposed to the parent PNA 186
[12] = compared with PNA 186 (Table 2, entry 1 and 3)
[13] = melting curves at pH 9 (not shown)

Which results are given for “H-(A*)10-LysNH2 [PNA 2020, reference compound]”?
Melting temperature (Tm), 5′-r(U)10 (5′-r(U)10 [1]): 25.5 °C; Tm depression per modification as compared to unmodified PNA against r(U)10 (5′-r(U)10 [2]): 1 °C

Which “Melting temperature (Tm), DNA” value [3] does the source give for “H-TAC-TCA-TAC-TCT-LysNH2 (TACTCATACTCT; all peptide nucleic acid (PNA), 3' {LysNH2}) [PNA 2005, unmodified PNA dodecamer]” here?
The value was 49.5 °C.

What about the “Melting temperature (Tm), RNA” value [4] of the same substance?
The value was 59.5 °C.

For “H-(T)5-LysNH2 [PNA 1164, reference compound]”, which “Melting temperature (Tm), Poly dA” value (poly dA) is on record?
Its value is 53.0 °C.

And the “Melting temperature (Tm), Poly dA, measured from 90 to 10 °C” value (poly dA)?
Its value is 45.5 °C.

And the “Melting temperature (Tm), Poly A” value (poly A)?
Its value is 64.0 °C.

What about the “Melting temperature (Tm), Poly A, measured from 90 to 10 °C” value (poly A) of the same substance?
Its value is 58.5 °C.

Which “Melting temperature (Tm), X = C” value [5] does the source give for “H-Gly-(A)10-NH2 [PNA 186, reference compound]” here?
The value was 36.5 (36.5) °C.

And the “Melting temperature (Tm), X = C, cooling curve” value [5]?
Its value is 36.5 (36.5) °C.

What about the “Melting temperature (Tm), 5′-d(T)10” value (5′-d(T)10) of the same substance?
Its value is 55.5 (55.5) °C.

What about the “Melting temperature (Tm), 5′-d(T)10, cooling curve” value (5′-d(T)10) of the same substance?
Its value is 55.5 (55.5) °C.

What about the “Melting temperature (Tm), X = T” value (5′-d(T)10) of the same substance?
The value was 55.5 °C.

What about the “Melting temperature (Tm), X = T, cooling curve” value (5′-d(T)10) of the same substance?
Its value is “(55.5) °C”.

What about the “Melting temperature (Tm), 5′-r(U)10” value (5′-r(U)10 [1]) of the same substance?
The value was 35.5 (35.5) °C.

What about the “Melting temperature (Tm), 5′-r(U)10, cooling curve” value (5′-r(U)10 [1]) of the same substance?
Its value is 35.5 (35.5) °C.

What about the “Melting temperature (Tm), X = G” value [6] of the same substance?
Its value is 40.5 (40.5) °C.

What about the “Melting temperature (Tm), X = G, cooling curve” value [6] of the same substance?
The value was 40.5 (40.5) °C.

With “H-CTC ATA CTC T-Lys-NH2 [PNA 2244] (CTCATACTCT; all peptide nucleic acid (PNA), 3' {LysNH2}) [aeg PNA oligomer of 10 monomers, reference compound]” as the substance, how does the “Tm, DNA parallel, down” value [7] read?
The value was “(43.5°) °C”.

What about the “Tm, DNA parallel, up” value [7] of the same substance?
Its value is 44.0° °C.

And the “Tm, DNA antiparallel, down” value [8]?
Its value is “(43.0°) °C”.

What about the “Tm, DNA antiparallel, up” value ([8]; medium salt buffer: 100 mM NaCl, 10 mM Na-phosphate, 0.1 mM EDTA) of the same substance?
The value was 45.0° °C.

What does the source list for H-(T#)5-LysNH2 [PNA 2121]?
Melting temperature (Tm), Poly dA (poly dA): 78.5 °C; Melting temperature (Tm), Poly dA, measured from 90 to 10 °C (poly dA): 44.0 °C; Melting temperature (Tm), Poly A (poly A): 79.0 °C; Melting temperature (Tm), Poly A, measured from 90 to 10 °C (poly A): 51.5 °C

With “H-TAC-TCA*-TAC-TCT-LysNH2 (TACTCATACTCT; chemistry not fully specified) [PNA 2075, PNA dodecamer with one A* = (3S, 5R) pyrrolidone PNA monomer]” as the substance, how does the “Melting temperature (Tm), DNA” value [3] read?
The value was 41.0 °C.

And the “Melting temperature (Tm), RNA” value [4]?
Its value is 53.8 °C.

For “H-CTC ATA CTC T-Lys-NH2 [PNA 2232] (CTCATACTCT; all peptide nucleic acid (PNA), 3' {LysNH2}; further chemistry not fully specified) [pyr PNA oligomer of 10 monomers]”, which “Tm, RNA antiparallel, down” value [9] is on record?
The value was “(41.0°) °C”.

What about the “Tm, DNA parallel, down” value [7] of the same substance?
The value was “(61.5°) °C”.

And the “Tm, DNA antiparallel, down” value [8]?
Its value is “(58.0°) °C”.

Which “Melting temperature (Tm), X = C” value [5] does the source give for H-(A#)10-LysNH2 [PNA 2110] here?
Its value is 71.0 °C.

And the “Melting temperature (Tm), X = C, cooling curve” value [5]?
Its value is 36.0 °C.

And the “Melting temperature (Tm), 5′-d(T)10” value (5′-d(T)10)?
The value was 79.0 °C.

And the “Melting temperature (Tm), 5′-d(T)10, cooling curve” value (5′-d(T)10)?
The value was 41.0 °C.

And the “Melting temperature (Tm), X = T” value (5′-d(T)10)?
Its value is 79.0 °C.

And the “Melting temperature (Tm), X = T, cooling curve” value (5′-d(T)10)?
The value was “(41.0) °C”.

What about the “Hysteresis of melting curves against DNA” value (5′-d(T)10; [11]) of the same substance?
The value was “significant hysteresis was detected”.

What about the “ΔTm/mod towards DNA” value (5′-d(T)10; [12]) of the same substance?
The value was “+2.5 °C”.

And the “Recognition of 5′-d(T)10 (sequence specificity)” value (5′-d(T)10; from mismatch Tm values of Table 3)?
The value was “sequence specific”.

And the “Lowering of Tm at pH 9 instead of pH 7, against DNA” value (5′-d(T)10; [13])?
The value was “about 3.5 °C”.

What about the “Melting temperature (Tm), 5′-r(U)10” value (5′-r(U)10 [1]) of the same substance?
Its value is 60.0 °C.

And the “Melting temperature (Tm), 5′-r(U)10, cooling curve” value (5′-r(U)10 [1])?
The value was 45.5 °C.

And the “Hysteresis of melting curves against RNA” value (5′-r(U)10 [1]; [11])?
The value was “significant hysteresis was detected”.

And the “ΔTm/mod towards RNA” value (5′-r(U)10 [1]; [12])?
The value was “+2.5 °C”.

And the “Lowering of Tm at pH 9 instead of pH 7, against RNA” value (5′-r(U)10 [1]; [13])?
Its value is roughly 1.5 °C.

And the “Melting temperature (Tm), X = G” value [6]?
Its value is 68.5 °C.

And the “Melting temperature (Tm), X = G, cooling curve” value [6]?
Its value is 37.0 °C.

What about the “Melting temperature (Tm), X = A” value ([10]; heating curve, medium salt buffer, pH 7.0) of the same substance?
Its value is 67.5 °C.

And the “Melting temperature (Tm), X = A, cooling curve” value ([10]; value in parentheses = cooling curve)?
The value was 35.5 °C.

What does the source list for H-TAC-TCA#-TAC-TCT-LysNH2 [PNA 2104]?
Melting temperature (Tm), DNA [3]: 28.5 °C; Melting temperature (Tm), RNA [4]: 44.5 °C
